Test results: patent US20250313537A1, “BENZ[…] AND METHODS OF USE IN TREATING CANCER” (University of Cincinnati, priority 2022, published 2025)
Entries after “also recorded” stand apart in the source; their conditions may differ.

Experiments:
[1] = test system: H1792 cells; test: In vitro viability assay (Cell Titer 96 Aqueous One), H1792; format: cell-based, human; conditions: H1792 cells (FIG. 6, 7A, 7B)
Experimental: (§1) Cell lines tested were purchased from the American Type Culture Collection (ATCC). Cells were maintained in Dulbecco's Modified Eagle's Medium (DMEM) (Corning) or Roswell Park Memorial Institute (RPMI) 1640 Medium (Gibco). Media for lines was supplemented with 10% (v/v) Fetal Bovine Serum (FBS) (Corning) and 100 U/mL penicillin/streptomycin (Sigma). Lines were grown at 37° C. with 5% (v/v) CO2. Cells were passaged twice a week at 1:10 ratio and reached 80 to 90% confluency between 72 and 96 hours.
(§2) For in vitro studies drug was solubilized in dimethyl sulfoxide (DMSO, 0.125%) prior to use. For mouse studies drug was solubilized in a co-solvent formulation: propylene glycol (40%); ethanol (10%); benzyl alcohol (2%); benzoic acid (2%); sodium benzoate (2%).
(§3) For cell proliferation viability studies, cells were assayed using the Cell Titer 96® Aqueous One Solution Assay (Promega). IC50 values were determined using the ‘[Inhibitor] versus normalized response’ nonlinear regression function and the log of inhibitor concentration in Prism 8 software (version 8.3.0 for MacOS).

[2] = test system: NIX; test: Western blot of NIX in H1792 cells; format: cell-based, human
Experimental: (§4) DNA was sheared by sonication. Lysates were kept on ice for 30 min, centrifuged 10 min (13,500×g, 4° C.), and protein concentration of supernatant determined by a Bradford assay (Protein Assay Dye Reagent, Bio-Rad). Lysates were mixed 1:1 with 2× Laemmli sample buffer containing β-mercaptoethanol and heated 5 min at 95° C. Protein was resolved by SDS-PAGE using 4-20% gradient polyacrylamide gels (Bio-Rad), then transferred to nitrocellulose membranes (Bio-Rad) for 2 hr at 100 V in tris-glycine transfer buffer containing 20% methanol. Membranes were blocked at room-temperature in 5% 1×TBST blocking buffer (TBS with 0.1% Tween-20 and 5% non-fat dry milk) for 1 hr with gentle agitation, followed by overnight incubation with primary Ab and gentle shaking at 4° C. The primary Abs were diluted as follows: GAPDH (1:1000, Cell Signaling Technology); GABARAP (1:1000, Cell Signaling Technology); NIX (1:1000, Cell Signaling Technology). Immunodetection was performed with anti-rabbit horseradish-peroxidase-conjugated secondary antibody (1:10000, Cell Signaling Technology). Post-primary Ab incubation, membranes were washed (3× for 10 min in TBST at room-temperature), probed with rabbit HRP tagged secondary antibody (1:3000, Cell Signaling Technology), and processed for chemiluminescence detection using ECL kit (Thermo Scientific). Chemiluminescence images were acquired using ChemiDoc Touch Imaging System (Bio-Rad).

[3] = test system: LC3B- and NIX-positive puncta in H1792 cells; test: Confocal immunofluorescence of autophagosome puncta; format: cell-based, human; conditions: H1792, relative to DMSO control
Experimental: Cells were seeded on sterile glass cover slips and grown overnight at 37° C. Cells were then rinsed with cold PBS and fixed in 4% paraformaldehyde (30 min, room temperature). Fixed cells were rinsed in PBS (3×5 min at room-temperature), and permeabilized (15 min in PBS containing 0.1% Triton X-100). Cells were washed in PBS (3× for 5 min at room-temperature) and incubated with blocking buffer (PBS containing 0.3% Triton X-100 and 3% BSA) for 1 hr at room-temperature with gentle shaking. Blocking solution was aspirated, cells washed with ice-cold PBS, and incubated overnight with primary Ab (LC3B or NIX) diluted 1:200 in sterile 0.5% BSA in PBS at 4° C. on the cover slip placed on a glass slide kept inside a humidified 10 cm dish with gentle shaking 60. Cells were washed (3× for 5 min in PBS) and incubated with fluorophore conjugated secondary Ab goat anti-rabbit Alexa Fluor 594 (Abcam) in 2% normal donkey serum at room-temperature for 1 hr in dark. Cells were washed (3× for 5 min in PBS) under low light and mounted on a glass slide in […] Antifade Mounting Medium with DAPI (Vector Laboratories). The following Abs were used (1:200 dilution): rabbit anti-human LC3B (Cell Signaling Technology) and rabbit NIX (Cell Signaling Technology). Slides were imaged on a Zeiss LSM 710 laser scanning confocal microscope and analyzed using NIH Fiji ImageJ2 (version 1.53c).

[4] = test system: GABAA receptors; test: Single-cell patch-clamp electrophysiology in H1792 cells; format: cell-based, human; conditions: 1 μM GABA + 4 μM QH-II-066
Text: Recording solutions were purchased from Nanion Technologies.

[5] = test system: GABARAP; test: Western blot of GABARAP in H1792 cells; format: cell-based, human
Experimental: as §4, with “Chemiluminescence images were acquired using ChemiDoc Touch Imaging System (Bio-Rad).” left out

[6] = test system: Lewis Lung Carcinoma cells; test: Mitochondrial depolarization, TMRE binding by FACS; format: cell-based, mouse; conditions: for TMRE binding (depolarization): Lewis Lung Carcinoma cells, FACS, within 15 minutes of incubation; for shift in electric charge distribution / depolarization of cancer cells: different/disparate cancer cell types
[7] = test system: Lewis Lung Carcinoma (LLC) tumors; test: Bilateral flank LLC tumor growth delay in C57Bl6 mice; format: in vivo, mouse
Text: as §2
For subcutaneous xenograft tumor growth delay experiments, black 6 mice (C57Bl6) were purchased (Charles River Laboratories) and housed at University of Cincinnati LAMS. Purchased mice were allowed to accommodate for a week prior to experiment. Mice were housed in pathogen-free rooms and clinical health evaluated weekly by veterinary staff of the University of Cincinnati LAMS. All animal studies were conducted in accordance with approval of a University of Cincinnati IACUC.
LLC1 cells (a million) grown in RPMI medium were washed in cold PBS and mixed with Matrigel 25%, then injected subcutaneously into left and right flanks above the hind limbs of 6 to 8-week-old mice. When subcutaneous tumors were palpable (˜100 mm^3 in size) the following treatments groups were initiated: (1) vehicle (2) drug. In mice receiving vehicle alone, the vehicle was injected i.p for 7 days. In mice receiving drug, drug (2.5 mg/kg body weight) was injected i.p. for 7 days. Following end of treatment, tumor volume were taken for growth delay studies. Mouse tumors were measured by Vernier calipers. Tumor volume was calculated using the formula: 4/3π×(l×h2), where: l and h are radii of the tumor taken perpendicular to each other. Tumor size was measured three times a week using a caliper.

[8] = test system: cancer cell lines A375, H1792, LN18, LLC; test: In vitro viability assay (Cell Titer 96 Aqueous One), cancer cell lines; format: cell-based, human, mouse; conditions: for cytotoxicity of NOR-variant relative to non-NOR-variant: SRE-III-35 vs TA-IV-74, TA-II-59 vs TA-II-73
Experimental: as §1, §2, §3

[9] = 2.5 mg/kg i.p. for seven consecutive days

C#Cc1ccc2c(c1)C(c1ccccc1F)=NC(O)C(=O)N2 (stereo not drawn) [MYM-I-59, 7-ethynyl-5-(2-fluorophenyl)-3-hydroxy-1,3-dihydro-2H-benzo[e][1,4]diazepin-2-one]
cytotoxicity (activity) [1]: poorly or inactive

C#Cc1ccc2c(c1)C(c1ccccc1)=NCC(=O)N2C [QH-II-066]
dose dependence of induced NIX dimerization ([2]; H1792): dose-dependent | NIX dimerization ([2]; H1792, 72 hours): dimerize | NIX protein level ([2]; H1792, 72 hours post-treatment): pronounced accumulation | LC3B-positive puncta [3]: increased puncta | NIX-positive puncta [3]: increased puncta | current response to GABA plus compound over GABA alone [4]: enhanced response; also recorded: enhances the current signal | GABARAP dimerization ([5]; H1792, 72 hours): dimerize | GABARAP protein level ([5]; H1792, 72 hours post-treatment): pronounced accumulation

O=C1CN=C(c2ccccc2)c2cc(C3CC3)ccc2N1 [SRE-III-35, 7-cyclopropyl-5-phenyl-1,3-dihydro-2H-benzo[e][1,4]diazepin-2-one]
TMRE binding (depolarization) [6]: reduced TMRE binding | shift in electric charge distribution / depolarization of cancer cells [6]: depolarizing | tumor control relative to vehicle mice [7, 9]: significant tumor control | cytotoxicity of NOR-variant relative to non-NOR-variant [8]: 2 fold | potency relative to TA-II-59 ([8]; cytotoxicity): equally as potent

O=C1CN=C(c2ccccc2F)c2cc(C3CC3)ccc2N1 [SRE-III-43, 7-cyclopropyl-5-(2-fluorophenyl)-1,3-dihydro-2H-benzo[e][1,4]diazepin-2-one]
TMRE binding (depolarization) [6]: reduced TMRE binding | shift in electric charge distribution / depolarization of cancer cells [6]: depolarizing

C#Cc1ccc2c(c1)C(c1ccccc1C)=NCC(=O)N2 [TA-II-59, 7-ethynyl-5-(o-tolyl)-1,3-dihydro-2H-benzo[e][1,4]diazepin-2-one]
TMRE binding (depolarization) [6]: reduced TMRE binding | shift in electric charge distribution / depolarization of cancer cells [6]: depolarizing | tumor control relative to vehicle mice [7, 9]: significant tumor control | cytotoxicity to cancer cells ([8]; LN18, H1792, A375, LLC1): most potent | cytotoxicity of NOR-variant relative to non-NOR-variant [8]: 2 fold | potency relative to QH-II-066 ([8]; cytotoxicity): an order of magnitude more potent

C#Cc1ccc2c(c1)C(c1ccccc1F)=NCC(=S)N2C [TA-III-50, 7-ethynyl-5-(2-fluorophenyl)-1-methyl-1,3-dihydro-2H-benzo[e][1,4]diazepine-2-thione]
cytotoxicity (activity) [1]: poorly or inactive

C#Cc1ccc2c(c1)C(c1ccccc1)=NCC(=S)N2C [TA-III-52, 7-ethynyl-1-methyl-5-phenyl-1,3-dihydro-2H-benzo[e][1,4]diazepine-2-thione]
cytotoxicity (activity) [1]: poorly or inactive

O=C1CN=C(c2ccccc2)c2cc(Br)cc(Br)c2N1 [TA-III-56, 7,9-dibromo-5-phenyl-1,3-dihydro-2H-benzo[e][1,4]diazepin-2-one]
cytotoxicity (activity) [1]: poorly or inactive

C#Cc1cc(C#C)c2c(c1)C(c1ccccc1)=NCC(=O)N2C [TA-III-62, 7,9-diethynyl-1-methyl-5-phenyl-1,3-dihydro-2H-benzo[e][1,4]diazepin-2-one]
cytotoxicity (activity) [1]: poorly or inactive

C#Cc1ccc2c(c1)C(c1ccccc1)=NC(O)C(=O)N2C (stereo not drawn) [TA-III-70, 7-ethynyl-3-hydroxy-1-methyl-5-phenyl-1,3-dihydro-2H-benzo[e][1,4]diazepin-2-one]
cytotoxicity (activity) [1]: poorly or inactive

CN1C(=O)CN=C(c2ccccc2)c2cc(C3CC3)ccc21 [TA-IV-74, 7-cyclopropyl-1-methyl-5-phenyl-1,3-dihydro-2H-benzo[e][1,4]diazepin-2-one]
effect compared with the other compounds tested [7, 9]: most significant effect; also recorded: most effective | tumor control relative to vehicle mice [7, 9]: significant tumor control | tumor volume ([7]; at 25 days, 2.5 mg/kg i.p. for seven days): no increase in tumor volume
